This note sets out measurements from patent US20210346288A1, “PHARMACEUTICAL FORMULATION CONTAINING ACTIVE METABOLITES OF REMDESIVIR FOR INHALATION” (priority 2020, published 2021).

The nature of data set [1]: Strong degradation test under light conditions (HPLC impurities). Type of data set: physicochemical. The protocol: (§1) Impurities Detection Method: HPLC Detection Method • Column: YMC-triart C 18, 4.6*150 mm, S-5 μm, 12 nm; • Flow: 0.8 ml/min • Injection volume: […], • Column temperature: 40° C. • A: Weigh 2.7 g of sodium dihydrogen phosphate, add 1 L of purified water, stir to dissolve, and filter to obtain. • B: Methanol
Sample 15: 60 mg RV_MP dissolved in 100 ml purified water.
The sample 15 was placed in light conditions, and the placement time was 2 hours, 4 hours, 6 hours, 24 hours, 48 hours, 72 hours, and the impurity detection method in Example 5 was used to detect the samples.
The impurity detection method of the present invention is the same as the impurity detection method in Example 5.

Data set [2] can be described thus: Influence of pH and pH adjuster on stability of RV-MP solution (HPLC impurities, 60° C./75% RH). The class given is physicochemical. The protocol: Remdesivir monophosphate disodium salt is the salt of nucleoside monophosphate. The stability of remdesivir monophosphate disodium salt (referred to as RV-MP) is highly dependent on the pH. Four samples were prepared, having pH 3.0, 4.0, 5.0, 6.0. 23 ml of purified water was adjusted to the target pH with hydrochloric acid. RV-MP according to the amounts provided in table 5 was added to the solution, and the resulting mixture was sonicated until completely dissolved. The resulting mixture was adjusted to the target pH with hydrochloric acid. Finally, purified water was added to provide a final weight of 25.0 g.
as §1
The stability of remdesivir monophosphate disodium salt (referred to as RV-MP) is highly dependent on the pH. Five samples were prepared, having pH 3.0, 3.2, 3.5, 3.8, 4.0. 23 ml of purified water was adjusted to the target pH with citric acid. RV-MP according to the amounts provided in Table 10 was added to the solution, and the resulting mixture was sonicated until completely dissolved. The resulting mixture was adjusted to the target pH with citric acid. Finally, purified water was added to provide a final weight of 25.0 g.
The stability of remdesivir monophosphate disodium salt (referred to as RV-MP) is highly dependent on the pH. Five samples were prepared, having pH 3.0, 3.2, 3.5, 3.8, 4.0. 23 ml of purified water was adjusted to the target pH with HCl. RV-MP according to the amounts provided in Table 16 was added to the solution, and the resulting mixture was sonicated until completely dissolved. Then the resulting mixture was adjusted to the target pH with HCl. Finally, purified water was added to provide a final weight of 25.0 g.

In the case of “remdesivir monophosphate disodium salt [RV-MP]”, the “Stability of RV-MP solution under light condition” value in data set [1] is given as “unstable”. Moreover, the “Stability of RV-MP solution at 60° C.” value in data set [2] (60° C.) is on record as “unstable”. Besides, the “Stability of RV-MP formulations” value in data set [2] (adjusting pH using HCl) is recorded as “stable at pH 3.0-4.0”. Besides, the “pH of highest stability” value in data set [2] (adjusting pH using HCl, pH 3.0-6.0 tested) was 3.0. For the same substance, the “Stability of resulting solution” value in data set [2] (using HCl to adjust the pH, compared with citric acid) was “more stable”; in data set [2] (using citric acid to adjust the pH, especially at pH3.0), “unstable”.
